Source: publication PMC7170299, “Design, synthesis, molecular modelling and biological evaluation of novel 3-(2-naphthyl)-1-phenyl-1H-pyrazole derivatives as potent antioxidants and 15-Lipoxygenase inhibitors” (Journal of Enzyme Inhibition and Medicinal Chemistry, 2020)

Tests used:
[1] = DPPH radical scavenging assay; settings: mean ± SEM of three experiments; 30 min, 517 nm
Protocol: The DPPH scavenging activity of all synthesized compounds was measured as previously described by Nahar et al.[48] with some modifications. Briefly, 100 µL of different concentrations of the tested compounds (12.5, 25, 50, 100, and 200 µg/mL) were pipetted into a 96-well plate. Then, 100 µL of 100-µM DPPH methanolic solution were added to each well and the plate was incubated protected from light at room temperature for 30 min. The absorbance of the solution was measured at λ517 nm.[49] Ascorbic acid was used as the positive control while DMSO was the negative control. The percentage of DPPH scavenging activity was calculated according to the following equation: % of DPPH scavenging=[(Acontrol–Asample)/Acontrol] ×100, where Acontrol is the absorbance of the control reaction (with all reagents except the test compound), and Asample is the absorbance of the test sample. […] All tests were performed in triplicates.

[2] = NO scavenging assay (sodium nitroprusside / Griess reagent); settings: mean ± SEM of three experiments; 90 min, 546 nm
Protocol: The NO scavenging activity of all synthesized compounds was measured as previously described by Ho et al.[50] Briefly, 50 µL of different concentrations of the tested compounds (12.5, 25, 50,100, and 200 µg/mL) were pipetted into a 96-well plate. Then, 50 µL of 10-mM sodium nitroprussides dissolved in phosphate-buffered saline PBS (pH 7.4) were added to each well and the plate was incubated for 90 min at room temperature. Next, an equal volume of Griess reagent (1% of sulphanilamide and 0.1% of naphthyl ethylene diamine in 2.5% […]) was added to each well to measure the nitrite content. The absorbance of the formed pink-coloured chromophore was measured at λ 546 nm. DMSO and ascorbic acid were used as the negative and positive control, respectively. All tests were performed in triplicate. The percentage of NO scavenging activity was calculated according to the following equation: % of NO scavenging=[(Acontrol−Asample)/Acontrol]×100 where Acontrol is the absorbance of the control reaction (with all reagents except the test compound), and Asample is the absorbance of the test sample.

[3] = Superoxide scavenging assay (pyrogallol autoxidation); settings: mean ± SEM of three experiments; pyrogallol autoxidation, 325 nm
Protocol: The improved pyrogallol autoxidation method was used to determine O2^−. RSA of all synthesized compounds as previously described. Briefly, 50 µL of test compounds (12.5, 25, 50,100, and 200 µg/mL) was added to 2900 µl of […] Tris HCl buffer (0.05 M, pH 7.4) containing 1-mM Na2EDTA. Next, 50 µL of 60-mM pyrogallol in1mM HCl had been thoroughly mixed with the mixture. The absorbance of the reaction mixture was measured at A325 nm every 30 s for 5 min. O2^− RSA was expressed by the oxidation degree of a test group in comparison to that of the control. The absorbance at 325 nm was measured against the Tris-HCl buffer every 30 s for 5 min. The percentage of scavenging effect was calculated using the following equation: O2^− radical scavenging %=[(ΔA325, control/T)−(ΔA325nm, sample/T)/ΔA325nm, control/T]×100 where ΔA325 nm, control is the increase in A325 nm of the reaction mixture without the sample and ΔA325 nm, sample is that for the mixture with the sample; T=5 min. The experiments were performed in triplicate.

Row | DPPH IC50 [1] [µg/mL] | NO IC50 [2] [µg/mL] | melting point [°C] | SMILES | Superoxide IC50 [3] [µg/mL]
1 | >200 | >200 | 190 to 191 | Clc1ccc(C2=NNC(c3cn(-c4ccccc4)nc3-c3ccc4ccccc4c3)C2)cc1 (centres unmarked) [Compound 3d, 5-(4-Chlorophenyl)-3′-naphthalen-2-yl-1′-phenyl-3,4-dihydro-2H,1’H-[3,4′] bipyrazole] | >200
2 | >200 | >200 | 192 to 193 | Clc1ccc(C2=NN(c3ccccc3)C(c3cn(-c4ccccc4)nc3-c3ccc4ccccc4c3)C2)cc1 (centres unmarked) [Compound 4d, 5-(4-Chlorophenyl)-3′-naphthalen-2-yl-2,1′-diphenyl-3,4-dihydro-2H,1'H-[3,4′] bipyrazole] | >200
3 | >200 | >200 | 161 to 162 | O=C(/C=C/c1cn(-c2ccccc2)nc1-c1ccc2ccccc2c1)c1ccc(Cl)cc1 [Compound 2d, 1-(4-chlorophenyl)-3-(3-naphthalen-2-yl-1-phenyl-1H-pyrazol-4-yl)propenone] | >200
4 | >200 | >200 | 185 to 186 | Clc1ccc(C2=NOC(c3cn(-c4ccccc4)nc3-c3ccc4ccccc4c3)C2)cc1 (centres unmarked) [Compound 5d, 3-(4-Chlorophenyl)-5-(3-naphthalen-2-yl-1-phenyl-1H-pyrazol-4-yl)-4,5-dihydro isoxazole] | >200
5 | >200 | >200 | 158 to 159 | O=C(/C=C/c1cn(-c2ccccc2)nc1-c1ccc2ccccc2c1)c1ccccc1 [Compound 2a, 3-(3-Naphthalen-2-yl-1-phenyl-1H-pyrazole-4-yl)-1-phenyl propenone] | >200
